This passage reports EC50 results from patent US9409866B2, “Pyridine-2-amides useful as CB2 agonists” (Hoffmann-La Roche Inc., priority 2012, dated 2016).

Read-outs that look alike come from different tables or passages of the source.

One experiment deals with human CB1 receptors (Homo sapiens (Human), UniProt P21554). In words: functional cAMP assay, CHO cells expressing human CB1. In kind it is cell-based. The note with it: functional cAMP assay, CHO cells expressing human CB1. The method, boiled down: (§1)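 CHO cells with human CB1 or CB2 were switched to Krebs Ringer bicarbonate buffer with 1 mM IBMX for 30 min at 30 °C, then given compound for 30 min at 30 °C. cAMP was measured by time-resolved FRET against a cAMP standard curve, and EC50 values were calculated.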

Another experiment concerns the target human CB2 receptors (Homo sapiens (Human), UniProt P34972). In words: functional cAMP assay, CHO cells expressing human CB2. In kind it is cell-based. The method in brief: as §1

human CB1 receptors, sequence (P21554 whole entry): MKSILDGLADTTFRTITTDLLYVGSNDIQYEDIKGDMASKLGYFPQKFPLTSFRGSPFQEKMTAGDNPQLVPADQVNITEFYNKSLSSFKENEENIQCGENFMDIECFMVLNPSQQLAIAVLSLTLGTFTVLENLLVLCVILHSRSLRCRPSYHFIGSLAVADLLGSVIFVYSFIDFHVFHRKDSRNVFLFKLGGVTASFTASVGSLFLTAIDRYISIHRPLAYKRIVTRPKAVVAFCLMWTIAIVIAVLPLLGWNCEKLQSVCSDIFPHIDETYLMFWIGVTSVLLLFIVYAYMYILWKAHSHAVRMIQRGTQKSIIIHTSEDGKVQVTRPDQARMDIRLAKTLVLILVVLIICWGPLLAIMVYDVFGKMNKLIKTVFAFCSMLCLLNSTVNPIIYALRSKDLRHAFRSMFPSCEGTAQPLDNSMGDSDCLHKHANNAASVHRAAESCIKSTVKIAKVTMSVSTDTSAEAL
human CB2 receptors, sequence (P34972 whole entry): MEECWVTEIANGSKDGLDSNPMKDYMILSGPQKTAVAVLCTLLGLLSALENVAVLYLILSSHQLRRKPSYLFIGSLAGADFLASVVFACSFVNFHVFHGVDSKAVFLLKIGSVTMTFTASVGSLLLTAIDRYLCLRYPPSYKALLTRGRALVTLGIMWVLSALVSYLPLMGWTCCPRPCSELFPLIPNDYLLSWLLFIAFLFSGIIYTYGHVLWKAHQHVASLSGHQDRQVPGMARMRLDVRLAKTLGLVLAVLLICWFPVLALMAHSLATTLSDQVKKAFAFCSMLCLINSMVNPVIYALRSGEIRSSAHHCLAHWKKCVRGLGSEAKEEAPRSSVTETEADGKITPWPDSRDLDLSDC

In the case of `Cc1nc(C(C)(NC(=O)c2cc(OCC(F)(F)F)c(C3(F)COC3)cn2)C2CC2)no1` (stereo not shown) [Example 139, N-[1-cyclopropyl-1-(5-methyl-1,2,4-oxadiazol-3-yl)ethyl]-5-(3-fluorooxetan-3-yl)-4-(2,2,2-trifluoroethoxy)pyridine-2-carboxamide], the EC50 at human CB1 receptors (read-out: Human CB1 EC50) is above 10 µM; at human CB2 receptors (read-out: Human CB2 EC50), 0.0006 µM.

As to `CCC(CC)(NC(=O)c1cc(OCC2CC2)c(C2CC2)cn1)C(=O)NC` [Example 45, 5-Cyclopropyl-4-cyclopropylmethoxy-pyridine-2-carboxylic acid (1-ethyl-1-methylcarbamoyl-propyl)-amide], the concentration for a half-maximal effect (EC50) on human CB1 receptors (read-out: Human CB1 EC50) was above 10 µM; at human CB2 receptors (read-out: Human CB2 EC50) it was 0.017 µM.

Take `C[C@H](Oc1cc(C(=O)NC(C(N)=O)C2(C)COC2)ncc1C1CC1)C(F)(F)F` (stereo partly drawn) [Example 251, N-[2-amino-1-(3-methyloxetan-3-yl)-2-oxoethyl]-5-cyclopropyl-4-[(2S)-1,1,1-trifluoropropan-2-yl]oxypyridine-2-carboxamide]: the EC50 was above 10 µM on human CB1 receptors (read-out: Human CB1 EC50) and 0.0089 µM on human CB2 receptors (read-out: Human CB2 EC50).

Take `C[C@H](Oc1cc(C(=O)NC(C)(CC(N)=O)C2CC2)ncc1C1(F)COC1)C(F)(F)F` (single isomer, unassigned) [Example 277]: the EC50 was above 10 µM at human CB1 receptors (Human CB1 EC50 (uM)) and 0.0431 µM on human CB2 receptors (Human CB2 EC50 (uM)).

On to `CNC(=O)[C@@H](NC(=O)c1cc(OCC(F)(F)F)c(Cl)cn1)C(C)(C)C` [Example 24, 5-Chloro-4-(2,2,2-trifluoro-ethoxy)-pyridine-2-carboxylic acid ((S)-2,2-dimethyl-1-methylcarbamoyl-propyl)-amide], for which the EC50 at human CB1 receptors (read-out: Human CB1 EC50) was above 10 µM; at human CB2 receptors (read-out: Human CB2 EC50) it was 0.0098 µM.

On to `NC(=O)[C@H](CC1CC1)NC(=O)c1cc(OCC2CC2)c(Cl)cn1` [Example 4, 5-Chloro-4-cyclopropylmethoxy-pyridine-2-carboxylic acid ((S)-1-carbamoyl-2-cyclopropyl-ethyl)-amide], for which the concentration for a half-maximal effect (EC50) at human CB1 receptors (read-out: Human CB1 EC50) was above 10 µM; at human CB2 receptors (read-out: Human CB2 EC50) it was 0.115 µM.

As for `CC(C)C[C@H](CC(N)=O)NC(=O)c1cc(OCC(F)(F)F)c(C2CC2)cn1` (single isomer, unassigned; enantiomer a) [Example 65, 5-Cyclopropyl-4-(2,2,2-trifluoro-ethoxy)-pyridine-2-carboxylic acid (1-carbamoylmethyl-3-methyl-butyl)-amide (enantiomer A)], the EC50 on human CB1 receptors (Human CB1 EC50 (uM)) is above 10 µM; on human CB2 receptors (Human CB2 EC50 (uM)) it was 0.027 µM.

In the case of `O=C(c1cc(OCC(F)(F)F)c(C2CC2)cn1)N1CCCC12COC2` [Example 71, [5-Cyclopropyl-4-(2,2,2-trifluoro-ethoxy)-pyridin-2-yl]-(2-oxa-5-aza-spiro[3.4]oct-5-yl)-methanone], the figures for the EC50 at human CB1 receptors (read-out: Human CB1 EC50) and at human CB2 receptors (read-out: Human CB2 EC50) were above 10 µM and 0.586 µM, respectively.

Consider `CCC(O)CNC(=O)c1cc(OCC2CC2)c(C2CC2)cn1` (stereo not shown) [Example 58, 5-Cyclopropyl-4-cyclopropylmethoxy-pyridine-2-carboxylic acid (2-hydroxy-butyl)-amide], for which the EC50 was above 10 µM on human CB1 receptors (read-out: Human CB1 EC50) and 0.0637 µM at human CB2 receptors (read-out: Human CB2 EC50).

Turning to `NC(=O)CC1(NC(=O)c2cc(OCC(F)(F)F)c(C3CC3)cn2)CS(=O)(=O)C1` [Example 160, N-[3-(2-amino-2-oxoethyl)-1,1-dioxothietan-3-yl]-5-cyclopropyl-4-(2,2,2-trifluoroethoxy)pyridine-2-carboxamide], the EC50 on human CB1 receptors (read-out: Human CB1 EC50) was above 10 µM; on human CB2 receptors (read-out: Human CB2 EC50), 0.0118 µM.

As for `CC(C)(C)C(NC(=O)c1cc(OCC2CC2)c(N2CC(F)(F)C2)cn1)C(N)=O` (stereo not shown) [Example 257, N-(1-amino-3,3-dimethyl-1-oxobutan-2-yl)-4-(cyclopropylmethoxy)-5-(3,3-difluoroazetidin-1-yl)pyridine-2-carboxamide], the EC50 was above 10 µM at human CB1 receptors (read-out: Human CB1 EC50) and 0.003 µM on human CB2 receptors (read-out: Human CB2 EC50).
